Compound in one experiment: O=[As]([O-])(O)O.[K+] [potassium arsenate]
The experiment can be described thus: thermal stability z-score vs DMSO; higher = more thermally stabilized by treatment. The conditions noted are these: HeLa; arsenate concentration 1 mM. The protocol: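 Cellular thermal proteome profiling in HeLa cells treated with 1 mM arsenate for 1 h (DMSO pretreatment), heated to ten temperatures (37-66.3 °C). Soluble protein was quantified by TMT mass spectrometry relative to DMSO controls; the thermal stability score was transformed to a z-score; mean of n = 3 experiments.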

Compound in another experiment: NC(=O)CCCCC1CCSS1 [lipoamide]
Described as above. The conditions noted are these: HeLa, lipoamide concentration 100 µM. The protocol: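 Cellular thermal proteome profiling in HeLa cells. Cells were treated with 100 µM lipoamide for 1 h, with or without 1 mM arsenate for a further 1 h, then heated to ten temperatures (37-66.3 °C), and soluble protein was quantified by TMT mass spectrometry relative to 0.1% DMSO controls. The thermal stability score (sum of log2 fold changes minus the abundance score) was transformed to a z-score; mean of n = 3 experiments.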

Where [1] appears, read: arsenate co-treatment: 1 mM arsenate 1 h.
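Further: each temperature applied for 3 min, abundance score taken as mean log2 fold change at the two lowest temperatures, z-score obtained by mean subtraction and division by SD.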

Chain of UniProt Q9H633 (Q9H633 whole entry): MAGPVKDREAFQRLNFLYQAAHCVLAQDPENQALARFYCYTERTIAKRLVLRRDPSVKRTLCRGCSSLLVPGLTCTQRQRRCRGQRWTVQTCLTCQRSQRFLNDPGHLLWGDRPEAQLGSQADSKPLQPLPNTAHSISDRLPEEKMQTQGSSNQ
Chain of UniProt Q9BUL9 (Q9BUL9 whole entry): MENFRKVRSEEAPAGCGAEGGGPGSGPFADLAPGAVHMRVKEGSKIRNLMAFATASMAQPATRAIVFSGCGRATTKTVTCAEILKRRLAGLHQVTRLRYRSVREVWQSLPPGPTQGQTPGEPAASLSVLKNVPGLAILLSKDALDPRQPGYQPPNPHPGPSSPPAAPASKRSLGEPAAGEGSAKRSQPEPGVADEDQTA
Chain of UniProt Q9BZQ6 (Q9BZQ6 whole entry): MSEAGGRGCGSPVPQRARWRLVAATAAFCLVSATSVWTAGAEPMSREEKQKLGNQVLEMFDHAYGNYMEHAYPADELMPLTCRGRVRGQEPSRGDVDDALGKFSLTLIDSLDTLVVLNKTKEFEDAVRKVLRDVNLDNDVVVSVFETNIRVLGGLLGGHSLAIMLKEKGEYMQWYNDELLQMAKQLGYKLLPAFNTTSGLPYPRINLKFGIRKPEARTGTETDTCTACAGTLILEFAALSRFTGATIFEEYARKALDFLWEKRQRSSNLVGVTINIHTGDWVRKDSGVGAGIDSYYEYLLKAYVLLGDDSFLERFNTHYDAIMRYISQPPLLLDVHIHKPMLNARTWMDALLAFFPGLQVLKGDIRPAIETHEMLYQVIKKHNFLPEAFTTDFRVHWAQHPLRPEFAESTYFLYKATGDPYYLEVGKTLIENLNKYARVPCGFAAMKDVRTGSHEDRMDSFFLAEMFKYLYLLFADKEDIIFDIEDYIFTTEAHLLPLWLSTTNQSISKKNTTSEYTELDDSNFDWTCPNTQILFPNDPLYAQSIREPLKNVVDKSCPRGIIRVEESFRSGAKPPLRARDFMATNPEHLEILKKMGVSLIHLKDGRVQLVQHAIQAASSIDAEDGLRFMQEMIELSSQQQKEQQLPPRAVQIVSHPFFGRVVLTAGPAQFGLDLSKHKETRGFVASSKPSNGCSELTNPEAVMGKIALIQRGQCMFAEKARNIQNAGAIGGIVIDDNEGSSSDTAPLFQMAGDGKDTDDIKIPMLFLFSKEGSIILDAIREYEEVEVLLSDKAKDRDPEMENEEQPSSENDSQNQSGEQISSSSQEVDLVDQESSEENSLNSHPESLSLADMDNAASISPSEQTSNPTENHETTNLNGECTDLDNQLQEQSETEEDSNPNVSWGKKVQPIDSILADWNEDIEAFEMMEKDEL
Chain of UniProt Q14258 (Q14258 whole entry): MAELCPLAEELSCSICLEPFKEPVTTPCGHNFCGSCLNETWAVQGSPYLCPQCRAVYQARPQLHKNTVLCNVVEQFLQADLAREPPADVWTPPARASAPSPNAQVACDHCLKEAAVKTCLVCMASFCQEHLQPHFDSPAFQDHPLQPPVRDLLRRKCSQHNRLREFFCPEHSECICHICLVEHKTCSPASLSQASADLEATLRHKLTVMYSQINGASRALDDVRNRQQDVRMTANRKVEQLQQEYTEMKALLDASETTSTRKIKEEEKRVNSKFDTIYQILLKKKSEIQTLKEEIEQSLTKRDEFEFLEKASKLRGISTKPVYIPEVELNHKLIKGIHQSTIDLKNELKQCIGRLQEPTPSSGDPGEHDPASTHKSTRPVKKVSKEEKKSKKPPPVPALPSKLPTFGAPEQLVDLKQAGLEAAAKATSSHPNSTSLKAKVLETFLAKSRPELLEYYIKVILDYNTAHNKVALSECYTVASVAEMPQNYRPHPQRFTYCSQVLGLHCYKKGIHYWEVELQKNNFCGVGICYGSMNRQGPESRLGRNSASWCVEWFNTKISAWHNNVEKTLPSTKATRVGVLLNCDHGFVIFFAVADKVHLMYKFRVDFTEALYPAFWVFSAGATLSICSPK
Chain of UniProt Q9NR50 (Q9NR50 whole entry): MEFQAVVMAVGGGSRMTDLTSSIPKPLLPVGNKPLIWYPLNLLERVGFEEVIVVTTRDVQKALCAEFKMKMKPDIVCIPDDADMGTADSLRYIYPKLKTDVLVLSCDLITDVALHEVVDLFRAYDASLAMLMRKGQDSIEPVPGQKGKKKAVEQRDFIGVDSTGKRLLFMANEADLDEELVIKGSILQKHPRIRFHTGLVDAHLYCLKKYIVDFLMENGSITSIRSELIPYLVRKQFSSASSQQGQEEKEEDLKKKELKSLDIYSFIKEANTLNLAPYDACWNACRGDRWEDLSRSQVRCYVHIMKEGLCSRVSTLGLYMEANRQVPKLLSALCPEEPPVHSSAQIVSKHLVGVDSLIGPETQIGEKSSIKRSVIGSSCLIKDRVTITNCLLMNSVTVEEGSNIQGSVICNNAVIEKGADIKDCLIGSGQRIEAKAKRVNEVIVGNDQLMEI
Chain of UniProt Q6ZSJ8 (Q6ZSJ8 whole entry): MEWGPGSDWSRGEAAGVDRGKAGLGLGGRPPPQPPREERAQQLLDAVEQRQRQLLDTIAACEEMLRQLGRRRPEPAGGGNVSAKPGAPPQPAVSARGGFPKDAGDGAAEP
Chain of UniProt Q9BVK2 (Q9BVK2 whole entry): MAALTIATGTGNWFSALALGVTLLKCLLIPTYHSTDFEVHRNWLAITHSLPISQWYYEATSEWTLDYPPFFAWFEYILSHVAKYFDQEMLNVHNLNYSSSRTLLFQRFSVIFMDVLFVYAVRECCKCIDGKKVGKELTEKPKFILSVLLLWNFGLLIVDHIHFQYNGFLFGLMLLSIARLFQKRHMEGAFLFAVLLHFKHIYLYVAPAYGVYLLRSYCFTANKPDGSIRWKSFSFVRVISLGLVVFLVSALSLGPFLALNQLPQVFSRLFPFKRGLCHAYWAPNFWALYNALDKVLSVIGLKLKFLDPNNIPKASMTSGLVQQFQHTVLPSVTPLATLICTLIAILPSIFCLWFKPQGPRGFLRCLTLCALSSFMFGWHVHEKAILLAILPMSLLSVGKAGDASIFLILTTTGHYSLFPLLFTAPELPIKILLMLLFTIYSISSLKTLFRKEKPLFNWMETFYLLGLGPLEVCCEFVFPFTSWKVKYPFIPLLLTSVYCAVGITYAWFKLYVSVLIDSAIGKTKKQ
Chain of UniProt Q14847 (Q14847 whole entry): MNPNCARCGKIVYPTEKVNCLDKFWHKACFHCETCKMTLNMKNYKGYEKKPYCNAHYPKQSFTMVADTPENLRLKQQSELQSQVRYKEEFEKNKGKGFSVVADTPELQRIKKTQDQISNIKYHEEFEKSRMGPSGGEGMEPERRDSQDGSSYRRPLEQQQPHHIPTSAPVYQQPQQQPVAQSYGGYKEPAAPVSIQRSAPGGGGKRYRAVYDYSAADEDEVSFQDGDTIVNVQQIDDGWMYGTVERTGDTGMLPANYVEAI
Chain of UniProt Q9BVJ6 (Q9BVJ6 whole entry): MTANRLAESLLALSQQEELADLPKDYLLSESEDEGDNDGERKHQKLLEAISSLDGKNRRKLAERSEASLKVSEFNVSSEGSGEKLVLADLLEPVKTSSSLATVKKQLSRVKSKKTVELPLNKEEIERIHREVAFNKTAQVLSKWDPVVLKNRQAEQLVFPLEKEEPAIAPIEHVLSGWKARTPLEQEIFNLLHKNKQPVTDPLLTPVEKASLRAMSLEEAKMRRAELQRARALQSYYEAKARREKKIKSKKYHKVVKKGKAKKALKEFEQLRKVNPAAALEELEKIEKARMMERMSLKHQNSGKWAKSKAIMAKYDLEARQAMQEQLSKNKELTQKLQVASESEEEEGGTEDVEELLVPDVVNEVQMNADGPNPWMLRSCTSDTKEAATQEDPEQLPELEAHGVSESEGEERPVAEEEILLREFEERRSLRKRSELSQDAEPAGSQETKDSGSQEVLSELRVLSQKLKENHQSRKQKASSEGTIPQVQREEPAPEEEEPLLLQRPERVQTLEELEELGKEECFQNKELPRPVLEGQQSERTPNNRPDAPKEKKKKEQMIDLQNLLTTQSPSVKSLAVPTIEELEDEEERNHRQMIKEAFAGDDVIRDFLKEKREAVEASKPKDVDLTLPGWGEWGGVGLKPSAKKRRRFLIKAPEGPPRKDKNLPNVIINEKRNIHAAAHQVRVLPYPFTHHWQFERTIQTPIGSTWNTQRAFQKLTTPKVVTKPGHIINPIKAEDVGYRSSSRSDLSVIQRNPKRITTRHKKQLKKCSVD
Chain of UniProt Q8N4Q1 (Q8N4Q1 whole entry): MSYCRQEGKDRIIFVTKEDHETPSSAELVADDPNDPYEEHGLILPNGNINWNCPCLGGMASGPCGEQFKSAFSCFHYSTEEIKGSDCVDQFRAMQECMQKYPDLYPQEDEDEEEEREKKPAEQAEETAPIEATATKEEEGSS
Chain of UniProt O95372 (O95372 whole entry): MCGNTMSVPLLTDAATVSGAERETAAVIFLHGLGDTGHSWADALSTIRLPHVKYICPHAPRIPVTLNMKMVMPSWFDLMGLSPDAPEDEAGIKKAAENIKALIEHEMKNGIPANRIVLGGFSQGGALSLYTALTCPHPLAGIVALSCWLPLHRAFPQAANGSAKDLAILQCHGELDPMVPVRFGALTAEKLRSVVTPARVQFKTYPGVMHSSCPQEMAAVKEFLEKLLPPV
Chain of UniProt Q9Y2R0 (Q9Y2R0 whole entry): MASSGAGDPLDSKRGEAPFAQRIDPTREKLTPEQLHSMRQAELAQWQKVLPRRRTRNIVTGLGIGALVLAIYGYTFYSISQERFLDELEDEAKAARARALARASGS
Chain of UniProt P30086 (P30086 whole entry, looked up): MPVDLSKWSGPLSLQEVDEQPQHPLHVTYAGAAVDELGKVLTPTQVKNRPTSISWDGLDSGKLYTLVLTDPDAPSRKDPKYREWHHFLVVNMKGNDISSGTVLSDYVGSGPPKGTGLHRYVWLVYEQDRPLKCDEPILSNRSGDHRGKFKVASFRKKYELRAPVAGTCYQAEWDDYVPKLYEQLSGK
Chain of UniProt Q96FQ6 (Q96FQ6 whole entry): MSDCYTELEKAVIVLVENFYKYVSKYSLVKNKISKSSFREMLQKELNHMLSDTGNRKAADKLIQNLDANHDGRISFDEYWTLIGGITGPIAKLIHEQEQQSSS

For DOCK5 (UniProt Q9H7D0), the results for the thermal stability z-score with potassium arsenate, with lipoamide (setting [1]) and with lipoamide (arsenate co-treatment: none) were -0.0423, -0.433 and -0.478, respectively.
Regarding ALG8 (UniProt Q9BVK2), the thermal stability z-score was 0.491 in the experiment with potassium arsenate, 0.425 with lipoamide (setting [1]) and -0.262 with lipoamide (arsenate co-treatment: none).
Turning to PAN3 (UniProt Q58A45), the figures for the thermal stability z-score with potassium arsenate, with lipoamide (setting [1]) and with lipoamide (arsenate co-treatment: none) were -0.257, -0.038 and 0.0344, respectively.
Turning to HGS (UniProt O14964), the thermal stability z-score with potassium arsenate was determined as 0.102; with lipoamide (setting [1]), 0.268; in the experiment with lipoamide (arsenate co-treatment: none), 0.638.
Turning to LYPLA2 (UniProt O95372), the thermal stability z-score with potassium arsenate stood at 0.209; with lipoamide (setting [1]) it was 0.141; with lipoamide (arsenate co-treatment: none), 0.194.
CRELD1 (UniProt Q96HD1): the thermal stability z-score with potassium arsenate is -0.113; in the experiment with lipoamide (setting [1]), -0.249; with lipoamide (arsenate co-treatment: none) it was -0.193.
For the target DNAJC11 (UniProt Q9NVH1), the thermal stability z-score is 0.285 in the experiment with potassium arsenate, 0.0767 with lipoamide (setting [1]) and -0.132 with lipoamide (arsenate co-treatment: none).
On to KRI1 (UniProt Q8N9T8), for which the values for the thermal stability z-score in the experiment with potassium arsenate, in the experiment with lipoamide (setting [1]) and with lipoamide (arsenate co-treatment: none) were -0.376, 0.198 and -0.118, respectively.
As for RAF1 (UniProt P04049), the thermal stability z-score in the experiment with potassium arsenate is -0.0609; with lipoamide (setting [1]) it was -0.142; with lipoamide (arsenate co-treatment: none) it was 0.126.
In the case of CFAP36 (UniProt Q96G28), the thermal stability z-score with potassium arsenate is 0.177; in the experiment with lipoamide (setting [1]), 0.177; in the experiment with lipoamide (arsenate co-treatment: none), 0.267.
For the target TNRC6B (UniProt Q9UPQ9), the thermal stability z-score with potassium arsenate was -0.306; in the experiment with lipoamide (setting [1]) it was -0.194; with lipoamide (arsenate co-treatment: none) it was -0.00843.
MRPL1 (UniProt Q9BYD6): the thermal stability z-score with potassium arsenate was 0.374; with lipoamide (setting [1]) it was -0.253; with lipoamide (arsenate co-treatment: none), -0.245.
PTK2 (UniProt Q05397): the values for the thermal stability z-score with potassium arsenate, in the experiment with lipoamide (setting [1]) and in the experiment with lipoamide (arsenate co-treatment: none) were -0.0048, 0.189 and 0.122, respectively.
Regarding UTP14A (UniProt Q9BVJ6), the thermal stability z-score was 2.11 in the experiment with potassium arsenate, 1.62 in the experiment with lipoamide (setting [1]) and 0.823 in the experiment with lipoamide (arsenate co-treatment: none).
For TRIM25 (UniProt Q14258), the thermal stability z-score with potassium arsenate was -0.882; in the experiment with lipoamide (setting [1]) it was -0.86; in the experiment with lipoamide (arsenate co-treatment: none), -0.867.
TGIF1 (UniProt Q15583): the thermal stability z-score in the experiment with potassium arsenate was -0.203; in the experiment with lipoamide (setting [1]) it was -0.557; with lipoamide (arsenate co-treatment: none) it was -0.274.
For the target RPP21 (UniProt Q9H633), the thermal stability z-score was -0.209 with potassium arsenate, -0.411 with lipoamide (setting [1]) and -0.242 with lipoamide (arsenate co-treatment: none).
Regarding RPP25 (UniProt Q9BUL9), the thermal stability z-score was -1.34 in the experiment with potassium arsenate, -0.534 with lipoamide (setting [1]) and -0.856 with lipoamide (arsenate co-treatment: none).
Turning to PAPOLA (UniProt P51003), the thermal stability z-score in the experiment with potassium arsenate is -0.119; in the experiment with lipoamide (setting [1]) it was -0.22; in the experiment with lipoamide (arsenate co-treatment: none) it was -0.103.
In the case of ICAM1 (UniProt P05362), the thermal stability z-score with potassium arsenate is -0.49; with lipoamide (setting [1]), 0.33; with lipoamide (arsenate co-treatment: none), -0.273.
EDEM3 (UniProt Q9BZQ6): the values for the thermal stability z-score in the experiment with potassium arsenate, with lipoamide (setting [1]) and with lipoamide (arsenate co-treatment: none) were 0.485, -3.5 and -2.77, respectively.
Take SLC35E1 (UniProt Q96K37): the values for the thermal stability z-score with potassium arsenate, in the experiment with lipoamide (setting [1]) and with lipoamide (arsenate co-treatment: none) were -1.27, -2.03 and -1.92, respectively.
For the target EIF2B3 (UniProt Q9NR50), the results for the thermal stability z-score with potassium arsenate, in the experiment with lipoamide (setting [1]) and in the experiment with lipoamide (arsenate co-treatment: none) were 0.582, -0.44 and 0.0579, respectively.
In the case of PEBP1 (UniProt P30086), the thermal stability z-score was -0.433 with potassium arsenate, 0.203 with lipoamide (setting [1]) and 0.0137 with lipoamide (arsenate co-treatment: none).
In the case of RPS8 (UniProt P62241), the figures for the thermal stability z-score with potassium arsenate, in the experiment with lipoamide (setting [1]) and with lipoamide (arsenate co-treatment: none) were -0.848, 0.378 and 0.0867, respectively.
For ZGPAT (UniProt Q8N5A5), the thermal stability z-score with potassium arsenate was -0.307; in the experiment with lipoamide (setting [1]), -0.303; with lipoamide (arsenate co-treatment: none) it was -0.13.
On the same counts, the results for ATRN (UniProt O75882) are 0.705, 0.622 and -0.532.
As to CHCHD4 (UniProt Q8N4Q1), the thermal stability z-score with potassium arsenate was -0.236; in the experiment with lipoamide (setting [1]), 0.0185; with lipoamide (arsenate co-treatment: none), 0.497.
SIRT6 (UniProt Q8N6T7): the thermal stability z-score with potassium arsenate is -0.21; with lipoamide (setting [1]) it was -0.0481; in the experiment with lipoamide (arsenate co-treatment: none) it was -0.176.
Consider MLLT4 (UniProt P55196), for which the thermal stability z-score with potassium arsenate is -0.113; in the experiment with lipoamide (setting [1]), -0.572; with lipoamide (arsenate co-treatment: none) it was -0.126.
On the same counts, the results for COA3 (UniProt Q9Y2R0) are 0.126, 0.463 and 0.725.
As to USP34 (UniProt Q70CQ2), the thermal stability z-score with potassium arsenate is -0.384; with lipoamide (setting [1]), 0.544; with lipoamide (arsenate co-treatment: none), 0.668.
As for PDE8B (UniProt O95263), the thermal stability z-score with potassium arsenate was 0.228; with lipoamide (setting [1]), -0.563; with lipoamide (arsenate co-treatment: none), 0.202.
Take UPF1 (UniProt Q92900): the thermal stability z-score with potassium arsenate is 0.172; with lipoamide (setting [1]), 0.222; in the experiment with lipoamide (arsenate co-treatment: none), -0.246.
The corresponding values for LASP1 (UniProt Q14847) are -0.178, 0.387 and 0.383.
In the case of TNS3 (UniProt Q68CZ2), the thermal stability z-score in the experiment with potassium arsenate is 1.32; in the experiment with lipoamide (setting [1]) it was 0.341; in the experiment with lipoamide (arsenate co-treatment: none), 0.204.
Take C1ORF122 (UniProt Q6ZSJ8): the thermal stability z-score was 0.28 in the experiment with potassium arsenate, 1.07 with lipoamide (setting [1]) and 1.18 with lipoamide (arsenate co-treatment: none).
For the target SQLE (UniProt Q14534), the thermal stability z-score stood at 0.26 with potassium arsenate, 0.647 with lipoamide (setting [1]) and 1.27 with lipoamide (arsenate co-treatment: none).
On to B4GALT4 (UniProt O60513), for which the thermal stability z-score with potassium arsenate was 0.252; in the experiment with lipoamide (setting [1]), -0.0137; with lipoamide (arsenate co-treatment: none) it was -0.101.
The corresponding values for RRM2B (UniProt Q7LG56) are -0.703, 0.945 and 0.415.
Regarding S100A16 (UniProt Q96FQ6), the figures for the thermal stability z-score in the experiment with potassium arsenate, in the experiment with lipoamide (setting [1]) and in the experiment with lipoamide (arsenate co-treatment: none) were 0.517, 1.33 and 1.29, respectively.
On to AIM1, for which the thermal stability z-score was 0.00488 in the experiment with potassium arsenate, -0.151 with lipoamide (setting [1]) and -0.209 in the experiment with lipoamide (arsenate co-treatment: none).
For TKT (UniProt P29401), the results for the thermal stability z-score in the experiment with potassium arsenate, with lipoamide (setting [1]) and in the experiment with lipoamide (arsenate co-treatment: none) were -0.045, 0.488 and 0.386, respectively.

The values are drawn from the supplement of paper PMC12463676, “Small-molecule dissolution of stress granules by redox modulation benefits ALS models” (Nature Chemical Biology, 2025).
